# Measured values: US20160304957A1, “TREATMENT AND MODULATION OF GENE EXPRESSION AND SKIN AGING” (DSM NUTRITIONAL PRODUCTS LTD., priority 2006, published 2016)
# Tested on: HaCaT human keratinocytes
# Test: Affymetrix GeneChip microarray, transcriptional response to β-carotene and/or UVA
# Assay type: cell-based
# Settings: β-carotene 1.5 μM, unirradiated
# Method: The cell culture experiments were carried out as described. Briefly, a subclone of passage 65 HaCaT keratinocytes, selected for differentiation capacity, was used at passages 16 to 23 after subcloning. 2×10^5 cells were seeded per 60 millimeter dish. Starting the following day, the cells were pretreated for 2 days with β-carotene at 1.5 μM, a typical concentration in human plasma after moderate dietary supplementation)
# β-carotene-containing medium was prepared as follows. Fresh all-E-β-carotene (DSM Nutritional Products, Kaiseraugst, Switzerland) stock solution in THF (containing 0.025% BHT; Fluka Chemie A G, Switzerland) was diluted 1:2 with ethanol and added to cell culture medium to a final concentration of 1.5 μM β-carotene. The solvent concentration in the medium was 0.5% for all treatments. β-carotene-containing medium was prepared fresh for the daily medium changes.
# On day 3 of the experiment, the cells were irradiated with a Hönle sun lamp Sol 500 (270 kJ/m^2; Dr. Hönle, Germany).
# Five independent, factorially designed cell irradiation experiments were analyzed by microarray hybridization. For each experiment, one chip was hybridized per treatment condition. GeneChip® analysis was done as described in [132], which is incorporated by reference, as if recited in full herein. Gene regulation by β-carotene and/or UVA was calculated relative to placebo.
# Changes in gene expression were included in further analysis only if the change factor was […], and if unpaired t-tests yielded p values≦0.05. Upregulations by a […] are labeled bold, downregulations by a change factor of […] are labeled bold italics. (Table 1) To identify the pathways affected by the treatments functional information on the genes was retrieved from public literature databases.
structure (smiles),measurement,value
"CC1=C(/C=C/C(C)=C/C=C/C(C)=C/C=C/C=C(C)/C=C/C=C(C)/C=C/C2=C(C)CCCC2(C)C)C(C)(C)CCC1 [β-carotene, All-E-β-carotene]",N-RAS (X02751) change factor,−1.2
same,NCF2; p67-phox; neutrophil oxidase factor (M32011) change factor,−0.8
same,NF-κB subunit (S78771) change factor,−0.1
same,NF-κB subunit (X61498) change factor,−0.07
same,NFκB; p50 (S76638) change factor,−0.46
same,NOL1; p120 nucleolar antigen (X55504) change factor,0.04
same,NOTCH3 (U97669) change factor,−0.8
same,NOV (X96584) change factor,−0.7
same,NOXA (D90070) change factor,−0.26
same,NRF1 (L24123) change factor,−0.27
same,"NRF2, subunit beta 1 (U13045) change factor",−1.5
same,OSR1; oxidative-stress responsive 1 (AB017642) change factor,−0.18
same,PAR-1; thrombin receptor (M62424) change factor,−0.5
same,PAR-2; proteinase activated receptor-2 (U34038) change factor,−0.27
same,"PAR-2; proteinase activated receptor-2 (U34038, second entry) change factor",−0.03
same,PAR-2; proteinase activated receptor-2 (U67058) change factor,0.03
same,PAR-4; protease-activated receptor 4 (AF055917) change factor,−0.49
same,RAIDD; death adaptor molecule (U79115) change factor,−0.22
same,RB1 (L49229) change factor,−0.8
same,RB2/p130 (X74594) change factor,−0.6
same,RETSDR1; retinal short-chain dehydrogenase/reductase (AF061741) change factor,1.1
same,RPA; replication protein A 14 kda subunit (rpa) (L07493) change factor,−0.04
same,RXRα (U66306) change factor,−0.2
same,RXRα (X52773) change factor,−0.2
same,Requiem (AF001433) change factor,0.5
same,SMAD 1 (U59423) change factor,−0.27
same,SMAD3 (U68019) change factor,0.5
same,"SMAD3 (U68019, second entry) change factor",0.18
same,SMAD4 (U44378) change factor,−0.7
same,SMAD5 (U59913) change factor,−0.9
same,SMAD6 (AF035528) change factor,−0.47
same,SMAD7 (AF010193) change factor,−0.19
same,SMRT (U37146) change factor,−0.33
same,STK15; BTAK (AF011468) change factor,−0.18
same,TDAG51; PQ-rich protein; PHLDA1 (Z50194) change factor,0.27
same,TGFβ; transforming growth factor β (X02812) change factor,0.9
same,TIAR; nucleolysin tiar (M96954) change factor,−0.45
same,"TIEG, EGRα (AF050110) change factor",−0.8
same,TLR3; toll-like receptor 3 (U88879) change factor,0.6
same,TOP2; topoisomerase II (J04088) change factor,−0.22
same,TRADD; TNF receptor-1 associated protein (L41690) change factor,0.23
same,TRAIL; TNF-related apoptosis inducing ligand (U37518) change factor,0.15
same,TRIP14; ‘2-5’ oligoadenylate synthetase (AJ225089) change factor,−0.07
same,TRIP (U77845) change factor,−0.06
same,TSSC3 (AF035444) change factor,−0.44
same,TSSC3/IPL (AF001294) change factor,−0.6
same,VEGF (AF022375) change factor,−0.5
same,VEGF (AF024710) change factor,0.02
same,VEGF (M63978) change factor,−0.48
same,VEGFR2; VEGF receptor 2; KDR; FLK-1kdr/flk-1 (AF035121) change factor,0.6
same,WEE1 (X62048) change factor,−0.6
same,WNT5A (I20861) change factor,−0.47
same,"WNT5A (I20861, second entry) change factor",−1.7
same,XRCC4 (U40622) change factor,−0.05
same,bFGF; basic fibroblast growth factor; FGF2 (M27968) change factor,0.1
same,bilirubin udp-glucuronosyltransferase isozyme 2 (M57951) change factor,−0.25
same,bullous pemphigoid autoantigen bp180 (M91669) change factor,−0.45
same,c-myc (V00568) change factor,0.1
same,"c-myc (V00568, second entry) change factor",0.1
same,c-myc binding protein (mbp-1) (M55914) change factor,0.5
same,"caspase 2, ICH-1S (U13022) change factor",−0.31
same,caspase 7 (U67319) change factor,−0.09
same,ceruloplasmin (ferroxidase) (M13699) change factor,1
same,"collagen type IV, α-2 (COL4A2) (X05610) change factor",−0.13
same,"collagen type IV, α-5 (COL4A5) (M58526) change factor",−0.8
same,"collagen type IV, α-6 (COL4A6) (D21337) change factor",−0.44
same,"collagen type VII, α-1 (COL7A1) (L02870) change factor",−0.21
same,connexin 31 (AF099730) change factor,0.17
same,connexin 45 (U03493) change factor,−0.06
same,coproporphyrinogen oxidase (D16611) change factor,−0.21
same,cyclin E2 (AF091433) change factor,−0.25
same,cyclin E (M73812) change factor,−0.23
same,desmocollin type 4 (D17427) change factor,−1.3
same,ferritin heavy chain (L20941) change factor,0.36
same,frizzled-2 (I37882) change factor,−0.03
same,frizzled-6 (AB012911) change factor,−0.5
same,haemochromatosis protein (hla-h) (U60319) change factor,0.15
same,hsp40; heat shock protein 40 (U40992) change factor,−0.6
same,integrin α6 (X53586) change factor,−1.1
same,integrin α6b (S66213) change factor,−0.9
same,"integrin α6b (S66213, second entry) change factor",−1.3
same,jagged2 (jag2) (AF029778) change factor,−0.02
same,keratin 2e (KRT2E); Keratin 2A (AF019084) change factor,−0.46
same,keratin 5 (M21389) change factor,0.9
same,keratin 15 (J00124) change factor,1
same,keratin 16 (M28439) change factor,−2
same,keratin 17 (Z19574) change factor,0.04
same,mKI67a mrna (long type) for antigen of monoclonal antibody KI-67 (X65550) change factor,−0.3
same,"mKI67a mrna (long type) for antigen of monoclonal antibody KI-67 (X65550, second entry) change factor",−0.17
same,ornithine decarboxylase (M33764) change factor,−0.2
same,ornithine decarboxylase (X16277) change factor,−0.32
same,p21; wild-type p53 activated fragment-1 (WAF1) (U03106) change factor,−0.5
same,p33; ING1b (AB024401) change factor,−0.47
same,p160ROCK (U43195) change factor,−0.28
same,protoporphyrinogen oxidase (D38537) change factor,−0.32
same,rTS α (X67098) change factor,0.13
same,serpinB1 (M93056) change factor,0.7
same,stimulator of Fe transport (AF020761) change factor,0.03
same,thioredoxin reductase (X91247) change factor,−0.08
same,thymidylate synthase (X02308) change factor,−0.12
same,transferrin receptor (X01060) change factor,−0.05
same,uroporphyrinogen III synthase (J03824) change factor,−0.15
same,α topoisomerase truncated-form (L47276) change factor,−0.43
